Measurements as given in PMC11420776 (RSC Advances, 2024).

Columns and labels:
CCRF-CEM (leukemia) = experiment: NCI 60-cell one-dose antiproliferative screen; assay type: cell-based, human; conditions: one dose 10 μM
RPMI-8226 (leukemia) = experiment: NCI 60-cell one-dose antiproliferative screen; assay type: cell-based, human; conditions: one dose 10 μM
[1] = test system: A549/ATCC (NSC lung cancer); experiment: NCI 60-cell one-dose antiproliferative screen; assay type: cell-based, human; conditions: one dose 10 μM
EKVX (NSC lung cancer) = experiment: NCI 60-cell one-dose antiproliferative screen; assay type: cell-based, human; conditions: one dose 10 μM
HOP-62 (NSC lung cancer) = experiment: NCI 60-cell one-dose antiproliferative screen; assay type: cell-based, human; conditions: one dose 10 μM
HOP-92 (NSC lung cancer) = experiment: NCI 60-cell one-dose antiproliferative screen; assay type: cell-based, human; conditions: one dose 10 μM
[2] = test system: NCI-H226 (NSC lung cancer); experiment: NCI 60-cell one-dose antiproliferative screen; assay type: cell-based, human; conditions: one dose 10 μM
[3] = test system: NCI-H23 (NSC lung cancer); experiment: NCI 60-cell one-dose antiproliferative screen; assay type: cell-based, human; conditions: one dose 10 μM
[4] = test system: NCI-H322M (NSC lung cancer); experiment: NCI 60-cell one-dose antiproliferative screen; assay type: cell-based, human; conditions: one dose 10 μM
[5] = test system: NCI-H460 (NSC lung cancer); experiment: NCI 60-cell one-dose antiproliferative screen; assay type: cell-based, human; conditions: one dose 10 μM
[6] = test system: NCI-H522 (NSC lung cancer); experiment: NCI 60-cell one-dose antiproliferative screen; assay type: cell-based, human; conditions: one dose 10 μM
COLO-205 (colon cancer) = experiment: NCI 60-cell one-dose antiproliferative screen; assay type: cell-based, human; conditions: one dose 10 μM
HCC-2998 (colon cancer) = experiment: NCI 60-cell one-dose antiproliferative screen; assay type: cell-based, human; conditions: one dose 10 μM
HCT-116 (colon cancer) = experiment: NCI 60-cell one-dose antiproliferative screen; assay type: cell-based, human; conditions: one dose 10 μM
HCT-15 (colon cancer) = experiment: NCI 60-cell one-dose antiproliferative screen; assay type: cell-based, human; conditions: one dose 10 μM
HT29 (colon cancer) = experiment: NCI 60-cell one-dose antiproliferative screen; assay type: cell-based, human; conditions: one dose 10 μM
KM12 (colon cancer) = experiment: NCI 60-cell one-dose antiproliferative screen; assay type: cell-based, human; conditions: one dose 10 μM
SW-620 (colon cancer) = experiment: NCI 60-cell one-dose antiproliferative screen; assay type: cell-based, human; conditions: one dose 10 μM
SF-268 (CNS cancer) = experiment: NCI 60-cell one-dose antiproliferative screen; assay type: cell-based, human; conditions: one dose 10 μM
SF-295 (CNS cancer) = experiment: NCI 60-cell one-dose antiproliferative screen; assay type: cell-based, human; conditions: one dose 10 μM
SF-539 (CNS cancer) = experiment: NCI 60-cell one-dose antiproliferative screen; assay type: cell-based, human; conditions: one dose 10 μM
SNB-19 (CNS cancer) = experiment: NCI 60-cell one-dose antiproliferative screen; assay type: cell-based, human; conditions: one dose 10 μM
SNB-75 (CNS cancer) = experiment: NCI 60-cell one-dose antiproliferative screen; assay type: cell-based, human; conditions: one dose 10 μM
U251 (CNS cancer) = experiment: NCI 60-cell one-dose antiproliferative screen; assay type: cell-based, human; conditions: one dose 10 μM
LOX IMIV (melanoma) = experiment: NCI 60-cell one-dose antiproliferative screen; assay type: cell-based, human; conditions: one dose 10 μM
MALME-3M (melanoma) = experiment: NCI 60-cell one-dose antiproliferative screen; assay type: cell-based, human; conditions: one dose 10 μM
M14 (melanoma) = experiment: NCI 60-cell one-dose antiproliferative screen; assay type: cell-based, human; conditions: one dose 10 μM
MDA-MB-435 (melanoma) = experiment: NCI 60-cell one-dose antiproliferative screen; assay type: cell-based, human; conditions: one dose 10 μM
SK-MEL-2 (melanoma) = experiment: NCI 60-cell one-dose antiproliferative screen; assay type: cell-based, human; conditions: one dose 10 μM
SK-MEL-28 (melanoma) = experiment: NCI 60-cell one-dose antiproliferative screen; assay type: cell-based, human; conditions: one dose 10 μM
UACC-257 (melanoma) = experiment: NCI 60-cell one-dose antiproliferative screen; assay type: cell-based, human; conditions: one dose 10 μM
UACC-62 (melanoma) = experiment: NCI 60-cell one-dose antiproliferative screen; assay type: cell-based, human; conditions: one dose 10 μM
IGROV1 (ovarian cancer) = experiment: NCI 60-cell one-dose antiproliferative screen; assay type: cell-based, human; conditions: one dose 10 μM
OVCAR-3 (ovarian cancer) = experiment: NCI 60-cell one-dose antiproliferative screen; assay type: cell-based, human; conditions: one dose 10 μM
OVCAR-4 (ovarian cancer) = experiment: NCI 60-cell one-dose antiproliferative screen; assay type: cell-based, human; conditions: one dose 10 μM
OVCAR-5 (ovarian cancer) = experiment: NCI 60-cell one-dose antiproliferative screen; assay type: cell-based, human; conditions: one dose 10 μM
OVCAR-8 (ovarian cancer) = experiment: NCI 60-cell one-dose antiproliferative screen; assay type: cell-based, human; conditions: one dose 10 μM
[7] = test system: NCI/ADR-RES (ovarian cancer); experiment: NCI 60-cell one-dose antiproliferative screen; assay type: cell-based, human; conditions: one dose 10 μM
SK-OV-3 (ovarian cancer) = experiment: NCI 60-cell one-dose antiproliferative screen; assay type: cell-based, human; conditions: one dose 10 μM
786-0 (renal cancer) = experiment: NCI 60-cell one-dose antiproliferative screen; assay type: cell-based, human; conditions: one dose 10 μM
A498 (renal cancer) = experiment: NCI 60-cell one-dose antiproliferative screen; assay type: cell-based, human; conditions: one dose 10 μM
ACHN (renal cancer) = experiment: NCI 60-cell one-dose antiproliferative screen; assay type: cell-based, human; conditions: one dose 10 μM
CAKI-1 (renal cancer) = experiment: NCI 60-cell one-dose antiproliferative screen; assay type: cell-based, human; conditions: one dose 10 μM
RXF 393 (renal cancer) = experiment: NCI 60-cell one-dose antiproliferative screen; assay type: cell-based, human; conditions: one dose 10 μM
SN12C (renal cancer) = experiment: NCI 60-cell one-dose antiproliferative screen; assay type: cell-based, human; conditions: one dose 10 μM
TK-10 (renal cancer) = experiment: NCI 60-cell one-dose antiproliferative screen; assay type: cell-based, human; conditions: one dose 10 μM
UO-31 (renal cancer) = experiment: NCI 60-cell one-dose antiproliferative screen; assay type: cell-based, human; conditions: one dose 10 μM
PC-3 (prostate cancer) = experiment: NCI 60-cell one-dose antiproliferative screen; assay type: cell-based, human; conditions: one dose 10 μM
DU-145 (prostate cancer) = experiment: NCI 60-cell one-dose antiproliferative screen; assay type: cell-based, human; conditions: one dose 10 μM
MCF7 (breast cancer) = experiment: NCI 60-cell one-dose antiproliferative screen; assay type: cell-based, human; conditions: one dose 10 μM
[8] = test system: MDA-MB-231/ATCC (breast cancer); experiment: NCI 60-cell one-dose antiproliferative screen; assay type: cell-based, human; conditions: one dose 10 μM
HS 578T (breast cancer) = experiment: NCI 60-cell one-dose antiproliferative screen; assay type: cell-based, human; conditions: one dose 10 μM
T-47D (breast cancer) = experiment: NCI 60-cell one-dose antiproliferative screen; assay type: cell-based, human; conditions: one dose 10 μM
[9] = test system: MDA-MB-468 (breast cancer); experiment: NCI 60-cell one-dose antiproliferative screen; assay type: cell-based, human; conditions: one dose 10 μM
[10] = test system: 60 human tumor cell lines; experiment: NCI 60-cell one-dose antiproliferative screen, whole panel; assay type: cell-based

Q: What does the source list for `Cc1cc(C)n(-c2ccc3nnc(-c4ccccc4)n3n2)n1` [Compound 5, 6-(3,5-dimethyl-1H-pyrazol-1-yl)-3-phenyl-[1,2,4]triazolo[4,3-b]pyridazine]?
A: GI% (CCRF-CEM (leukemia)): — (— GI% is below 15%); GI% (RPMI-8226 (leukemia)): — (— GI% is below 15%); GI% [1]: — (— GI% is below 15%); GI% (EKVX (NSC lung cancer)): — (— GI% is below 15%); GI% (HOP-62 (NSC lung cancer)): — (— GI% is below 15%); GI% (HOP-92 (NSC lung cancer)): — (— GI% is below 15%); GI% [2]: — (— GI% is below 15%); GI% [3]: — (— GI% is below 15%); GI% [4]: — (— GI% is below 15%); GI% [5]: — (— GI% is below 15%); GI% [6]: 25.34%; GI% (COLO-205 (colon cancer)): — (— GI% is below 15%); GI% (HCC-2998 (colon cancer)): — (— GI% is below 15%); GI% (HCT-116 (colon cancer)): — (— GI% is below 15%); GI% (HCT-15 (colon cancer)): — (— GI% is below 15%); GI% (HT29 (colon cancer)): — (— GI% is below 15%); GI% (KM12 (colon cancer)): — (— GI% is below 15%); GI% (SW-620 (colon cancer)): — (— GI% is below 15%); GI% (SF-268 (CNS cancer)): — (— GI% is below 15%); GI% (SF-295 (CNS cancer)): — (— GI% is below 15%); GI% (SF-539 (CNS cancer)): — (— GI% is below 15%); GI% (SNB-19 (CNS cancer)): — (— GI% is below 15%); GI% (SNB-75 (CNS cancer)): — (— GI% is below 15%); GI% (U251 (CNS cancer)): — (— GI% is below 15%); GI% (LOX IMIV (melanoma)): 22.70%; GI% (MALME-3M (melanoma)): — (— GI% is below 15%); GI% (M14 (melanoma)): — (— GI% is below 15%); GI% (MDA-MB-435 (melanoma)): — (— GI% is below 15%); GI% (SK-MEL-2 (melanoma)): — (— GI% is below 15%); GI% (SK-MEL-28 (melanoma)): — (— GI% is below 15%); GI% (UACC-257 (melanoma)): — (— GI% is below 15%); GI% (UACC-62 (melanoma)): — (— GI% is below 15%); GI% (IGROV1 (ovarian cancer)): — (— GI% is below 15%); GI% (OVCAR-3 (ovarian cancer)): — (— GI% is below 15%); GI% (OVCAR-4 (ovarian cancer)): — (— GI% is below 15%); GI% (OVCAR-5 (ovarian cancer)): — (— GI% is below 15%); GI% (OVCAR-8 (ovarian cancer)): — (— GI% is below 15%); GI% [7]: 23.93%; GI% (SK-OV-3 (ovarian cancer)): — (— GI% is below 15%); GI% (786-0 (renal cancer)): — (— GI% is below 15%); GI% (A498 (renal cancer)): — (— GI% is below 15%); GI% (ACHN (renal cancer)): — (— GI% is below 15%); GI% (CAKI-1 (renal cancer)): 25.28%; GI% (RXF 393 (renal cancer)): — (— GI% is below 15%); GI% (SN12C (renal cancer)): — (— GI% is below 15%); GI% (TK-10 (renal cancer)): — (— GI% is below 15%); GI% (UO-31 (renal cancer)): >100%; GI% (PC-3 (prostate cancer)): — (— GI% is below 15%); GI% (DU-145 (prostate cancer)): — (— GI% is below 15%); GI% (MCF7 (breast cancer)): — (— GI% is below 15%); GI% [8]: — (— GI% is below 15%); GI% (HS 578T (breast cancer)): — (— GI% is below 15%); GI% (T-47D (breast cancer)): — (— GI% is below 15%); GI% [9]: — (— GI% is below 15%); inhibition at 10 µM ([10]; Homo sapiens, 60 cell, read-out: Mean inhibition (mean GI%)): < 0%; cytotoxic activity in words ([10]; NCI-60 panel, one dose 10 μM): demolished cytotoxicity
